Reference: patent publication US20050261265A1, “MODULATING CELLULAR SENESCENCE BY AMPHIPHYSIN-1” (priority 2000, published 2005)
Each block holds one molecule with its values, some of them ahead of it. {FL} = fluorescein region

Columns and labels:
caveolin-1 [1] = test: Western blotting of young cells treated with demethylating agent; type: cell-based, human; details: young fibroblasts PDL 20; 1 μM; FIG. 23b
Description: (§1) The induction of cellular senescence was verified by SA β-gal activity staining as Example III. To investigate the expression of related proteins, the treated cells were harvested in different days and western blotting was performed as previously described. In western blotting, anti-p53 antibody, anti-p16 antibody, anti-caveolin-1 antibody and anti-actin antibody were purchased from Santa Cruz Biotechnology, Inc.

p16 = test: as above; type: cell-based, human; details: young fibroblasts PDL 20; 1 μM; FIG. 23b
Description: as §1

human fibroblasts = test: Senescence-associated β-galactosidase activity staining; type: cell-based; details: for β-galactosidase activity shown from (days after treatment), entry of cellular senescence: fibroblasts PDL 16, 400 μM
Description: The fibroblasts subcultured in Exmaple I-1, PDL of which are 16, were placed in culture plate and were kept to arrest cell cycle to G1 phase in incubator (37° C., 5% CO2 and humidified) for a week. The cell cycle arrest was confirmed as follows: Following the fixation of the cells with cold ethanol, the cells were stained for 30 min. at room temperature using PI staining solution (containing 50 μg/ml of Rnase A and 50 μg/ml of propinium iodide in PBS). Thereafter, using FACS (fluorescence-activated cell sorter), the cell cycle was confirmed by observing DNA phenotype, i.e., 2n or 4n.
The fibroblasts arrested in G1 phase were treated with 400 μM H2O2 and then incubated for 3 hrs., followed by washing with 10 ml of PBS. Then, the cells were subcultured at a 1:4 ratio and under normal conditions for cell culure (37° C., 5% CO2 and humidified), cell culture was continuously performed. Following 7 days after the treatment, the cells were determined in terms of senescence using senescence-associated […] activity staining as described in Example III.
The fibroblasts subcultured in Exmaple I-1, PDL of which are 16, were placed in culture plate containing DMEM and were cultured in incubator (37° C., 5% CO2 and humidified) for 14 hrs. Thereafter, the fibroblasts were treated with 400 μM Hydroxyurea and then incubated continuously. The medium was renewed once per 3 days with the addition of fresh 400 μM Hydroxyurea. Following 14 days after the treatment, the cells were determined in terms of senescence using senescence-associated […] activity staining as described in Example III.
A senescence-associated […] activity staining (hereinafter referred to as “SA β-gal activity staining) was performed according to the method of Dimri et al. (Dimri G P et al., Proc. Natl. Acad. Sci., 92:9363(1995)): The semiconfluent fibroblasts were washed twice with 10 ml of PBS and fixed with 2% paraformaldehyde in PBS for 5 min. at room temperature. […]

caveolin-1 [2] = test: Western blotting of caveolin-1 in cells treated with oligonucleotides; type: cell-based, human; details: old fibroblasts PDL 64
Description: Analysis of caveolin expression, in young cells (PDL less than 30), middle cells (PDL 35-45) and old cells (PDL more than 60) of Human fibroblasts or IMR-90 cells, was performed by Western blotting as described in Example V. Monoclonal anti-caveolin-1 antibody, monoclonal anti-caveolin-2 antibody and monoclonal anti-caveolin-3 antibody were purchased from Transduction Laboratories.
Old human fibroblasts (PDL 64) were placed onto 24 well-plate or dish containing DMEM without FBS and incubated in incubator (37° C., 5% CO2) for 12 hr. After incubation, 1-5 μg of 100 μM antisense oligonucleotides synthesized and Plus reagent (Gibco-BRL) were mixed with 500 μl of DMEM and subsequently reacted for 15 min. at room temperature, and the resulting mixture was well mixed with 500 μl of the mixture containing 12 μl of Lipofectamine (Gibco-BRL) and DMEM, followed by standing the mixture for 15 min. at room temperature in order to form liposome complex. The incubated cells were washed twice with DMEM (no serum) and treated with 1 ml of the liposome complex, followed by incubation for 3 hr at 37° C. To the transfected cells, 1-5 ml of DMEM containing 10% FBS was added and the incubation was subsequently carried out for 24 hr, after which the media was changed with DMEM containing 10% FBS. Following incubation for a given period, immunostaining and western blotting were carried out as follows: […]

caveolin-1 [3] = test: Immunostaining of caveolin-1 in old fibroblasts transfected with oligonucleotide; type: cell-based, human; details: old fibroblasts PDL 64; for expression of caveolin-1 in cell (immunostaining): with a lapse of treatment time, FIG. 19
Description: Old human fibroblasts (PDL 64) were placed onto 24 well-plate or dish containing DMEM without FBS and incubated in incubator (37° C., 5% CO2) for 12 hr. After incubation, 1-5 μg of 100 μM antisense oligonucleotides synthesized and Plus reagent (Gibco-BRL) were mixed with 500 μl of DMEM and subsequently reacted for 15 min. at room temperature, and the resulting mixture was well mixed with 500 μl of the mixture containing 12 μl of Lipofectamine (Gibco-BRL) and DMEM, followed by standing the mixture for 15 min. at room temperature in order to form liposome complex. The incubated cells were washed twice with DMEM (no serum) and treated with 1 ml of the liposome complex, followed by incubation for 3 hr at 37° C. To the transfected cells, 1-5 ml of DMEM containing 10% FBS was added and the incubation was subsequently carried out for 24 hr, after which the media was changed with DMEM containing 10% FBS. Following incubation for a given period, immunostaining and western blotting were carried out as follows:
The cells treated with antisense oligonucleotide were fixed with 0.5 ml of 4% paraformaldehyde for 20 min at room temperature and then permeabilized with 0.5 ml of 0.5% Triton X-100 in PBS for 10 min, followed by blocking with 2% BSA (in PBS). The cells were sequentially incubated with anti-caveolin-1 antibody (Transduction Laboratory) overnight at 4° C. and then rhodamine-conjugated secondary antibody (Santa Cruz) for 1 hr at room temperature. For the purpose of visualizing nucleus, DAPI (Molecular Probe) was also added. The observation was performed using confocal microscope (Biorad, #MRC1024).

Erk-1/2 = test: Western blotting of Erk-1/2 activation upon EGF after oligonucleotide transfection; type: cell-based, human; details: old cells; 100 ng/ml EGF; FIG. 20
Description: Young cells (PDL less than 30), middle cells (PDL 35-45) and old cells (PDL more than 60) of Human fibroblasts or IMR-90 cells, respectively were stimulated with 100 ng/ml EGF (Gibco-BRL, human, recombinant). After stimulation, western blotting was performed as described in Example V. Monoclonal anti-phospho-Erk-1/2 antibody, polyclonal anti-Erk-1/2 antibody and polyclonal anti-EGFR antibody were purchased from Santa Cruz Biotechnology, Inc. As found in FIG. 13a, in both young and middle-aged cells, Erk-1/2 kinases were phosphorylated (activated) within 5 min, and the resulting activation was sustained for 15 min after EGF stimulation. However, the phosphorylation of Erk-1/2 kinase from old cells was not detected until 15 min had lapsed. The expression level of Erk kinase and EGFR was not changed by the increase of population doubling in Western blot (see FIG. 13b), despite the down-regulation of EGF signaling to Erk kinases.
The old and young fibroblasts were treated with antisense oligonucleotide as described in Example XVII. The EGF stimulation and western blotting were carried out as described in Example XI. FIG. 20 represents the results of this Example.

p-Erk-1/2 = test: Immunostaining of p-Erk-1/2 translocation to nucleus; type: cell-based, human; details: old cells; EGF; FIG. 22
Description: To verify that Erk-1/2 kinase activated in Example XVIII is translocated into nucleus and regulate sequentially the expression of other genes, immunostaining was performed as follows: Young and old fibroblasts were treated with antisense oligonucleotide and EGF as Example XIII. The treated cells were sequentially incubated with anti-p-Erk (phosphorylated-Erk) antibody (New England Biotech) overnight at 4° C. and then FITC-conjugated secondary antibody (Santa Cruz) for 1 hr at room temperature. For the purpose of visualizing nucleus, DAPI (Molecular Probe) was also added. The image of p-Erk-1/2 localization was visualized using confocal microscope (Biorad, #MRC1024), which is found in FIGS. 21 and 22. In FIGS. 21 and 22, arrows indicate translocation of p-Erk-1/2 kinase into nucleus.

[4] = test system: receptor-mediated endocytosis; test: Internalization of rhodamine-conjugated transferrin in artificially induced senescent cells (confocal microscopy); type: cell-based, human; details: 25 μg/ml rhodamine-conjugated transferrin, FIG. 4

- SA β-gal activity staining (induction of cellular senescence) (human fibroblasts; young fibroblasts PDL 20, 1 μM, treated for about 2 weeks, FIG. 23a): senescent cell-like phenomenon
Molecule: Nc1ncn([C@H]2C[C@H](O)[C@@H](CO)O2)c(=O)n1 [5-aza-deoxycytidine]
- expression of caveolin-1 (caveolin-1 [1]): increased
- expression of p16 (p16): increased

Molecule: 5′-tttgcccccaga-3′ (antisense TTTGCCCCCAGA; all phosphorothioate, 5' {FL}, sugars by position and methylation of C not given here) [antisense oligonucleotide]
- caveolin-1 band (western blotting) (caveolin-1 [2]): weaker band corresponding to caveolin-1
- cell morphology (caveolin-1 [3]): enlarged and spread morphology to smaller and spindle morphology
- expression of caveolin-1 in cell (immunostaining) (caveolin-1 [3]): dramatically decreased
- Erk-1/2 activation by EGF (Erk-1/2): highly increased
- p-Erk-1/2 in nucleus (p-Erk-1/2): vice versa

Molecule: 5′-atgtctgggggc-3′ (sense ATGTCTGGGGGC; all phosphorothioate, 5' {FL}, sugars by position and methylation of C not given here) [sense oligonucleotide, sense oligonucleotide for the same region of caveolin-1 mRNA, control]
- cell morphology (caveolin-1 [3]): did not show such cell-morphology alteration
- expression of caveolin-1 in cell (immunostaining) (caveolin-1 [3]): not changed
- Erk-1/2 activation by EGF (Erk-1/2): no alteration in Erk-1/2 activation
- p-Erk-1/2 in nucleus (p-Erk-1/2): no p-Erk-1/2 in nucleus

Molecule: OO [H2O2]
- function of receptor-mediated endocytosis (internalization of fluorescent transferrin) [4]: reduced function of receptor-mediated endocytosis
- β-galactosidase activity shown from (days after treatment), entry of cellular senescence (human fibroblasts): 10 days

Molecule: NC(=O)NO [hydroxyurea, Hydroxyurea]
- function of receptor-mediated endocytosis (internalization of fluorescent transferrin) [4]: reduced function of receptor-mediated endocytosis
- β-galactosidase activity shown from (days after treatment), entry of cellular senescence (human fibroblasts): 14 to 20 days
